Data on 12 compounds can be found in patent US8552031B2, “3-ethylidenehydrazino substituted heterocyclic compounds as thrombopoietin receptor activators” (Nissan Chemical Industries, Ltd., priority 2004, dated 2013).

The target in the assay is T1, human TPO receptor (c-mp1) (Homo sapiens, UniProt P40238).
T1 construct: expressed in transfected cells
T1 sequence (P40238 26-635): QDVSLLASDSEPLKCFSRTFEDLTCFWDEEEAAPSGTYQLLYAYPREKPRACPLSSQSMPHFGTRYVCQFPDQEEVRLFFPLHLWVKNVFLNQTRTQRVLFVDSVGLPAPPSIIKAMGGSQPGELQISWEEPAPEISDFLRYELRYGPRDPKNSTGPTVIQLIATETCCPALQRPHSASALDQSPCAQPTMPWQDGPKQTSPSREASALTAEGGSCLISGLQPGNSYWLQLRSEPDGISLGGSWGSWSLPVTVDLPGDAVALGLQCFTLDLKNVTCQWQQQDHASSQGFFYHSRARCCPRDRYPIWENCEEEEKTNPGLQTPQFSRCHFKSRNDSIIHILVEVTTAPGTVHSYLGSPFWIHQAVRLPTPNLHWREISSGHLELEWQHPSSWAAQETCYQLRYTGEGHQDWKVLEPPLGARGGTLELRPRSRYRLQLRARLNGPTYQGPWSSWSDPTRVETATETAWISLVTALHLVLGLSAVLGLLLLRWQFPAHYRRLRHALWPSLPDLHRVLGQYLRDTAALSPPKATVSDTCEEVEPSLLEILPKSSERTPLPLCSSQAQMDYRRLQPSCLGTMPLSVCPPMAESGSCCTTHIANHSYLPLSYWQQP
Kind of assay: Stimulation of proliferation of TPO-dependent cell line UT7/EPO-mpl (WST-8). It is filed as cell-based. The settings on record: concentration that yields a growth rate corresponding to 50% of the growth of UT-7/EPO-mpl observed in the presence of 10 ng/ml TPO; 4 days incubation; read-out: EC50 (converted). As for the experimental part: The reactivity of the compound of Synthetic Example 4 of the present invention with thrombopoietin (TPO) receptor was assayed using a human leukemic cell line, UT7/EPO-mpl.
UT7/EPO-mpl is a stable transformed cell line obtained by introducing into human leukemic cell line UT7/EPO a vector that induces expression of human TPO receptor (c-mp1) under control of cytomegalovirus immediate-early promoter by the method of Takatoku et al. (J. Biol. Chem., 272:7259-7263 (1997)). […] These two cell lines were subcultured in Iscove's modified Dulbecco's medium (IMDM; GIBCO) containing 10% fetal bovine serum (FBS; Thermo Electron or BioWest) using a CO2 incubator (5% CO2, 37° C.).
The subcultured cells described above were washed twice with phosphate buffered saline (PBS) and suspended in IMDM containing 10% FBS at a cell density of 6×10^4 cells/ml. The cell suspension was transferred to a 96-well tissue culture plate (CORNING) in 100-μl aliquots. Then either TPO (Pepro Tech EC) or the compound of Synthetic Example 4 dissolved in dimethyl sulfoxide (DMSO) was diluted 83-fold with IMDM containing 10% FBS and added to the aforementioned cell suspension in 20-μl aliquots. The cell suspension was incubated in a CO2 incubator (5% CO2, 37° C.) for 4 days. Cell proliferation was assayed using WST-8 reagent (Kishida Chemical Co., Ltd.) according to instructions by the manufacturer. A 10-μl aliquot of 5 mM WST-8 reagent solution was added to each well of the tissue culture plate, and the plate was incubated at 37° C. for 4 h. The formazan pigment generated was detected by measuring the absorbance at 450 nm with a 96-well microplate reader (Nihon Molecular Devices, Spectramax 190).
The compounds of the following Synthetic Examples were tested according to the method of Assay Example 1 to determine the concentration of each compound that yields a growth rate corresponding to 50% of the growth of human leukemic cell line UT-7/EPO-mpl observed in the presence of 10 ng/ml TPO (EC50).
For orientation: Formazan colour is commonly taken as a measure of viable cells.

Usually EC50 stands for the concentration needed to bring the measured effect to its halfway point. In the case of `COC(=O)C1CCN(C(=S)NN=C(C)c2csc(-c3ccc(Cl)c(Cl)c3)c2O)CC1` [Synthetic Example 1, methyl 1-{1-[5-(3,4-dichlorophenyl)-4-hydroxythiophen-3-yl]-ethylidene-hydrazinothiocarbonyl}-piperidine-4-carboxylate], the EC50 was 0.0637 µM. As for `CC(=NNC(=S)N1CCC(C(=O)O)CC1)c1csc(-c2ccc(Cl)c(Cl)c2)c1O` [Synthetic Example 2, 1-{1-[5-(3,4-dichlorophenyl)-4-hydroxythiophen-3-yl]-ethylidene-hydrazinothiocarbonyl}-piperidine-4-carboxylic acid], the figure is 0.00677 µM; as for `COC(=O)CNC(=S)NN=C(C)c1csc(-c2ccc(Cl)c(Cl)c2)c1O` [Synthetic Example 3, methyl 2-[(2-{1-[5-(3,4-dichlorophenyl)-4-hydroxythiophen-3-yl]-ethylidene}-hydrazinocarbonothioyl)amino]acetate], 0.0555 µM; as for `COC(=O)CCNC(=S)NN=C(C)c1csc(-c2ccc(Cl)c(Cl)c2)c1O` [Synthetic Example 5, methyl 3-[(2-{1-[5-(3,4-dichlorophenyl)-4-hydroxythiophen-3-yl]-ethylidene}-hydrazinocarbonothioyl)amino]propionate], 0.0672 µM. Then `CC(=NNC(=S)NCCC(=O)O)c1csc(-c2ccc(Cl)c(Cl)c2)c1O` [Synthetic Example 6, 3-[(2-{1-[5-(3,4-dichlorophenyl)-4-hydroxythiophen-3-yl]-ethylidene}-hydrazinocarbonothioyl)amino]propionic acid], with 0.0324 µM; and `COCCNC(=S)NN=C(C)c1csc(-c2ccc(Cl)c(Cl)c2)c1O` [Synthetic Example 7, 1-(2-{1-[5-(3,4-dichlorophenyl)-4-hydroxythiophen-3-yl]-ethylidene}-hydrazinocarbonothioyl)amino-2-methoxyethane], with 0.0669 µM. Then `COC(=O)C1CCN(C(=S)NN=C(C)c2csc(-c3ccc(Br)cc3)c2O)CC1` [Synthetic Example 8, methyl 1-{1-[5-(4-bromophenyl)-4-hydroxy-thiophen-3-yl]-ethylidene-hydrazinothiocarbonyl}-piperidine-4-carboxylate], with 0.0504 µM; and `CC(=NNC(=S)N1CCC(C(=O)O)CC1)c1csc(-c2ccc(Br)cc2)c1O` [Synthetic Example 9, 1-{1-[5-(4-bromophenyl)-4-hydroxy-thiophen-3-yl]-ethylidene-hydrazinothiocarbonyl}-piperidin-4-carboxylic acid], with 0.00477 µM.

For `CC(=NNC(=S)N1CCC(C(=O)O)CC1)c1csc(-c2ccc(C(F)(F)F)cc2)c1O` [Synthetic Example 10, 1-{1-[4-hydroxy-5-(4-trifluoromethylphenyl)-thiophen-3-yl]-ethylidene-hydrazinothiocarbonyl}-piperidine-4-carboxylic acid], the half-maximal effective concentration (EC50) was 0.00573 µM. Then `CC(=NNC(=S)N1CCC(C(=O)O)CC1)c1csc(-c2ccc(OC(F)(F)F)cc2)c1O` [Synthetic Example 11, 1-{1-[5-(4-trifluoromethoxyphenyl)-4-hydroxythiophen-3-yl]-ethylidene-hydrazinothiocarbonyl}-piperidine-4-carboxylic acid], with 0.00595 µM.

On to `CC(=NNC(=S)N1CCC(C(=O)O)CC1)c1csc(-c2ccc(Cl)cc2)c1O` [Synthetic Example 12, 1-{1-[5-(4-chlorophenyl)-4-hydroxy-thiophen-3-yl]-ethilidene-hydrazinothiocarbonyl}-piperidine-4-carboxylic acid], for which the half-maximal effective concentration (EC50) was 0.00479 µM.

With `CC(=NNC(=S)N1CCC(C(=O)O)CC1)c1csc(-c2ccc(C)c(C)c2)c1O` [Synthetic Example 13, 1-{1-[5-(3,4-dimethylphenyl)-4-hydroxythiophen-3-yl]-ethylidene-hydrazinothiocarbonyl}-piperidine-4-carboxylic acid], the 50% effective concentration (EC50) is 0.00602 µM.
